Structures can show the parent of a compound that is named as a salt.
Columns and labels:
HCoV-OC43 = tested on: HCoV-OC43; set-up: species or system RD; HTS, protection from HCoV-OC43 induced cell death, luminescent cell viability (CellCounting-Lite 2.0), inhibition rate; conditions: 24 h, 10 µM; inhibitor
HCoV-229E = tested on: HCoV-229E; set-up: species or system Huh-7; HTS, protection from HCoV-229E induced cell death, luminescent cell viability (CellCounting-Lite 2.0), inhibition rate; conditions: 24 h, 10 µM; inhibitor

| SMILES | OC43 Inhibition rate (HCoV-OC43) | 229E Inhibition rate (HCoV-229E) |
| --- | --- | --- |
| O=C1C=C2C=C[C@@H]3C[C@@]2(O1)[C@H]1CCCCN31 [(-)-Securinine] | 38.4% | 43% |
| CC[C@@]1(O)C(=O)OCc2c1cc1n(c2=O)Cc2cc3cc(O)ccc3nc2-1 [(S)-10-Hydroxycamptothecin] | -0.8 | 18.7 |
| O=C1C=C2C=C[C@@H]3C[C@@]2(O1)[C@@H]1CCCCN31 [Allosecurinine] | 19.8% | 21.3% |
| N#C[C@H](O[C@@H]1O[C@H](CO[C@@H]2O[C@H](CO)[C@@H](O)[C@H](O)[C@H]2O)[C@@H](O)[C@H](O)[C@H]1O)c1ccccc1 [Amygdalin] | 0.1% | 20.7% |
| CC[C@@H]1/C=C(\C)C[C@H](C)C[C@H](OC)[C@H]2O[C@@](O)(C(=O)C(=O)N3CCCC[C@H]3C(=O)O[C@H](/C(C)=C/[C@@H]3CC[C@@H](O)[C@H](OC)C3)[C@H](C)[C@@H](O)CC1=O)[C@H](C)C[C@@H]2OC [Ascomycin] | 12.5 | 17.9 |
| CC(C)[C@H]1OC(=O)[C@H](Cc2ccccc2)N(C)C(=O)[C@@H](C(C)C)OC(=O)[C@H](Cc2ccccc2)N(C)C(=O)[C@@H](C(C)C)OC(=O)[C@H](Cc2ccccc2)N(C)C1=O [Beauvericin] | -1.9 | 24.3 |
| C/C=C\c1cc(OC)c(OC)cc1OC [Beta-asarone] | 0.1% | 28.9% |
| CN1CCc2cc3c(cc2[C@H]1[C@@H]1OC(=O)c2c1ccc1c2OCO1)OCO3 [Bicuculline] | -0.3% | 0% |
| C[C@]12CC[C@H](O)C[C@H]1CC[C@@H]1[C@@H]2CC[C@]2(C)[C@@H](c3ccc(=O)oc3)CC[C@]12O [Bufalin] | -7.6% | 19.3% |
| CC[C@H]1CN2CCc3cc(OC)c(OC)cc3[C@@H]2C[C@@H]1C[C@H]1NCCc2cc(O)c(OC)cc21 [Cephaeline (dihydrochloride)] | 7.6% | 17.7% |
| CC(=O)O[C@H]1[C@H]2O[C@]23[C@@H]2CC[C@]4(O)C[C@@H](O)CC[C@]4(C)[C@H]2CC[C@]3(C)[C@H]1c1ccc(=O)oc1 [Cinobufotalin] | 11.4% | 9.3% |
| CC1=C2C(=CO[C@H](C)[C@H]2C)C(O)=C(C(=O)O)C1=O [Citrinin] | -8.1% | 12% |
| COc1cc2c(c(OC)c1OC)-c1ccc(OC)c(=O)cc1[C@@H](NC(C)=O)CC2 [Colchicine] | -3.5 | 13.9 |
| CC(=O)C1=C(O)[C@@H]2[C@H]3c4c[nH]c5cccc(c45)C[C@H]3C(C)(C)N2C1=O [Cyclopiazonic acid] | 0% | 0% |
| CO[C@H]1CC=C2CCN3CCC4=C(CC(=O)OC4)[C@]23C1 [Dihydro-β-erythroidine (hydrobromide)] | -0.7% | 0% |
| COc1cc(CNC(=O)CCCCCCC(C)C)ccc1O [Dihydrocapsaicin] | 7.9 | 7.8 |
| C=C(C)c1cc2cc(C(C)=O)c(O)cc2o1 [Euparin] | 4.4% | 14.2% |
| C=C[C@@H](O)C#CC#C[C@@H](O)/C=C\CCCCCCC [Falcarindiol] | -0.3% | 34% |

| SMILES | OC43 Inhibition rate (HCoV-OC43) | 229E Inhibition rate (HCoV-229E) |
| --- | --- | --- |
| CCc1c(Cl)c(O)c(Cl)c(O)c1C(=O)O[C@H]1[C@H](O)[C@H](OC)[C@H](OC/C2=C\C=C\C[C@H](O)/C(C)=C/[C@H](CC)[C@@H](O[C@@H]3OC(C)(C)[C@@H](OC(=O)C(C)C)[C@H](O)[C@@H]3O)/C(C)=C/C(C)=C/C[C@@H]([C@@H](C)O)OC2=O)O[C@@H]1C [Fidaxomicin] | 15 | 27.3 |
| CCCCc1ccc(C(=O)O)nc1 [Fusaric acid] | 0.1% | 12.7% |
| CN[C@H]1[C@H](O)[C@H](O[C@@H]2[C@@H](O)[C@H](O[C@H]3O[C@H](C(C)O)[C@@H](O)[C@H](O)[C@H]3N)[C@@H](N)C[C@H]2N)OC[C@@]1(C)O (stereo partly drawn) [G-418 (disulfate)] | 4.1% | 29.4% |
| C=C[C@]12CN(C)[C@@H]3[C@H]4CO[C@H](C[C@H]41)[C@]1(C(=O)Nc4ccccc41)[C@@H]32 [Gelsemine] | -0.3% | 21.7% |
| CN1C(=O)[C@]23CC4=CC=C[C@H](O)[C@H]4N2C(=O)[C@@]1(CO)SS3 [Gliotoxin] | -0.7% | 0.7% |
| Cc1nccc2c1[nH]c1ccccc12 [Harmane] | 0.2% | 0% |
| COc1ccc2c(c1OC)C(=O)O[C@@H]2[C@H]1c2cc3c(cc2CCN1C)OCO3 [Hydrastine] | -0.2% | 28.1% |
| COc1c2c3c4c(c(OC)c(=O)c5c(O)cc(OC)c(c6c(OC)cc(O)c(c1=O)c63)c54)[C@@H](C(C)=O)[C@@](C)(O)C2 [Hypocrellin A] | -1.7% | 4.6% |
| N[C@H](C(=O)O)c1cc(O)no1 [Ibotenic acid] | 3.8% | 11.4% |
| CC1=C2C(=O)[C@H]3[C@@H](CC=C4C[C@@H](O)CC[C@@]43C)[C@@H]2CC[C@]12O[C@@H]1C[C@H](C)CN[C@H]1[C@H]2C [Jervine] | -0.3% | 3.8% |
| C=C(C)[C@H]1CN[C@H](C(=O)O)[C@H]1CC(=O)O [Kainic acid] | 2.1% | 14.3% |
| CCC(=O)O[C@@H]1CC(=O)O[C@H](C)C/C=C/C=C/[C@H](O)[C@H](C)C[C@H](CC=O)[C@H](O[C@@H]2O[C@H](C)[C@@H](O[C@H]3C[C@@](C)(O)[C@@H](OC(=O)CC)[C@H](C)O3)[C@H](N(C)C)[C@H]2O)[C@H]1OC [Midecamycin] | -1.1 | 12.9 |
| N#C[C@@H](O[C@@H]1O[C@H](CO[C@@H]2O[C@H](CO)[C@@H](O)[C@H](O)[C@H]2O)[C@@H](O)[C@H](O)[C@H]1O)c1ccccc1 [Neoamygdalin] | -0.4% | 63.2% |
| O=C1C=C2C(=CCOC2O)O1 (stereo not drawn) [Patulin] | -3.1% | 3.7% |
| C[C@H]1CCC2N(C1)C[C@H]1C3CC4[C@@H](CC(=O)C5C[C@@H](O)CC[C@@]54C)C3CCC1[C@]2(C)O (stereo partly drawn) [Peiminine] | 1% | 21.8% |
| CC(C)CCC(=O)c1ccoc1 [Perilla ketone] | 2.5% | 9.1% |
| CC(C)C1=CC(=O)[C@@](C)([C@H]2[C@H](O)C[C@@]3(C)[C@@H]4CC=C5[C@@H](CC[C@@H](O[C@@H]6OC[C@@H](O)[C@H](O)[C@H]6O[C@@H]6O[C@@H](C)[C@H](O)[C@@H](O)[C@H]6O)C5(C)C)[C@]4(C)C(=O)C[C@]23C)O1 [Picfeltarraenin IA] | -0.3% | 0% |
| C[C@@H]1O[C@@H](O[C@@H]2C=C3CC[C@@H]4[C@H](CC[C@]5(C)[C@@H](c6ccc(=O)oc6)CC[C@]45O)[C@@]3(C)CC2)[C@H](O)[C@H](O)[C@H]1O [Proscillaridin A] | -0.6% | 21.1% |

Reference: article PMC12431657, “Discovery and mechanistic insights of dibenzoylmethane as a broad spectrum inhibitor of coronavirus” (PLOS Pathogens, 2025)
